For 14 molecules, IC50 results are on record in ChEMBL document CHEMBL1136321, “Regioselective synthesis and cytotoxicities of camptothecin derivatives modified at the 7-, 10- and 20-positions” (Bioorg Med Chem Lett, 2003).

Broadly, the IC50 is the concentration at which inhibition is half-maximal. A high value points to lower potency.

What all share (type): functional, cell-based
One assay relates to HCT-8. Briefly: In vitro cytotoxicity against HCT-8 (human colon cancer).
Another assay concerns KB VCR R. Briefly: In vitro cytotoxicity against KB/VCR (Vincristine-resistant cancer cell line). Particulars: Homo sapiens.
In another assay the test system is Bel-7402. Briefly: In vitro cytotoxicity against Bel7402 (human liver cancer). To be noted: Bel-7402, Liver.
The test system of a further assay is A2780. Briefly: In vitro cytotoxicity against A2780 (human ovarian cancer).
The test system of a further assay is KB. The experiment in a line: In vitro cytotoxicity against KB (human epidermoid carcinoma of the nasopharynx).
The subject of another assay is A549. The experiment in a line: In vitro cytotoxicity against A549 (human lung cancer).

As for `CC[C@@]1(OC(=O)Cc2cc(OC)c(OC)c(OC)c2)C(=O)OCc2c1cc1n(c2=O)Cc2c-1nc1ccccc1c2COC(=O)Cc1cc(OC)c(OC)c(OC)c1`, the IC50 with HCT-8 stood at 76 nM; with KB VCR R, 947 nM; with Bel-7402 it was 82 nM; in the assay with A2780 it was 68 nM; in the assay with KB it was 78 nM; in the assay with A549, 98 nM.
Regarding `CC[C@@]1(O)C(=O)OCc2c1cc1n(c2=O)Cc2c-1nc1ccccc1c2COC(=O)COc1ccc(C#N)c(F)c1`, the IC50 in the assay on HCT-8 was below 1 nM; with KB VCR R it was 437 nM; with Bel-7402, below 1 nM; in the assay with A2780 it was below 1 nM; with KB, below 1 nM; with A549, 8 nM.
Take `CC[C@@]1(OC(=O)COc2ccc(OC)cc2)C(=O)OCc2c1cc1n(c2=O)Cc2cc3cc(OC(=O)COc4ccc(OC)cc4)ccc3nc2-1`: the IC50 in the assay with HCT-8 was 97 nM; with KB VCR R, 460 nM; with Bel-7402 it was 200 nM; with A2780, 88 nM; in the assay on KB, 69 nM; in the assay on A549, 718 nM.
Turning to `CC[C@@]1(OC(=O)COc2ccc(OC)cc2)C(=O)OCc2c1cc1n(c2=O)Cc2c-1nc1ccccc1c2COC(=O)COc1ccc(OC)cc1`, the 50% inhibitory concentration (IC50) in the assay with HCT-8 was determined as 76 nM; with KB VCR R, 267 nM; in the assay with Bel-7402, 84 nM; with A2780, 71 nM; with KB, 310 nM; in the assay with A549 it was 348 nM.
On to `CC[C@@]1(O)C(=O)OCc2c1cc1n(c2=O)Cc2cc3cc(OC(=O)COc4ccc(F)cc4)ccc3nc2-1`, for which the IC50 turned out to be 62 nM in the assay on HCT-8; 244 nM with KB VCR R; 95 nM with Bel-7402; 54 nM with A2780; 53 nM in the assay with KB; 80 nM in the assay with A549.
Regarding `CC[C@@]1(OC(=O)COc2ccc(F)cc2)C(=O)OCc2c1cc1n(c2=O)Cc2cc3cc(OC(=O)COc4ccc(F)cc4)ccc3nc2-1`, the IC50 in the assay on HCT-8 was 82 nM; in the assay on KB VCR R, 295 nM; in the assay with Bel-7402, 95 nM; in the assay on A2780 it was 15 nM; in the assay with KB, 55 nM; in the assay on A549, 401 nM.
In the case of `CC[C@@]1(O)C(=O)OCc2c1cc1n(c2=O)Cc2cc3c(CN(C)C)c(O)ccc3nc2-1` [TOPOTECAN], the IC50 in the assay with HCT-8 worked out at 74 nM; in the assay with KB VCR R, 339 nM; in the assay on Bel-7402, 78 nM; in the assay with A2780 it was 58 nM; in the assay with A549, 87 nM.
For `CC[C@@]1(O)C(=O)OCc2c1cc1n(c2=O)Cc2cc3cc(OC(=O)COc4ccc(OC)cc4)ccc3nc2-1`, the IC50 amounted to 61 nM with HCT-8; 275 nM in the assay with KB VCR R; 74 nM with Bel-7402; 65 nM in the assay with A2780; 47 nM with KB; 190 nM in the assay with A549.
Consider `CC[C@@]1(OC(=O)COc2ccc(C#N)c(F)c2)C(=O)OCc2c1cc1n(c2=O)Cc2c-1nc1ccccc1c2COC(=O)COc1ccc(C#N)c(F)c1`, for which the IC50 came to 48 nM in the assay on HCT-8; 53 nM in the assay with KB VCR R; 33 nM in the assay on Bel-7402; 10 nM in the assay on A2780; 9 nM in the assay with KB; 55 nM in the assay with A549.
Regarding `CC[C@@]1(O)C(=O)OCc2c1cc1n(c2=O)Cc2c-1nc1ccccc1c2COC(=O)COc1ccc(OC)cc1`, the IC50 came out at 9 nM in the assay with HCT-8; 51 nM with KB VCR R; 8 nM in the assay with Bel-7402; 9 nM in the assay on A2780; 8 nM with KB; 69 nM in the assay with A549.
As to `CC[C@@]1(O)C(=O)OCc2c1cc1n(c2=O)Cc2c-1nc1ccccc1c2COC(=O)Cc1cc(OC)c(OC)c(OC)c1`, the IC50 in the assay on HCT-8 turned out to be 55 nM; in the assay with KB VCR R, 340 nM; in the assay on Bel-7402 it was 72 nM; with A2780, 61 nM; in the assay with KB, 36 nM; in the assay on A549 it was 160 nM.
As to `CC[C@@]1(OC(=O)COc2ccc(F)cc2)C(=O)OCc2c1cc1n(c2=O)Cc2c-1nc1ccccc1c2COC(=O)COc1ccc(F)cc1`, the IC50 in the assay on HCT-8 was 52 nM; with KB VCR R it was above 1000 nM; with Bel-7402, 26 nM; with A2780 it was 58 nM; in the assay with KB, 72 nM; with A549 it was 293 nM.
On to `CC[C@@]1(O)C(=O)OCc2c1cc1n(c2=O)Cc2c-1nc1ccccc1c2COC(=O)COc1ccc(F)cc1`, for which the IC50 came out at 8 nM in the assay on HCT-8; 49 nM in the assay with KB VCR R; 9 nM with Bel-7402; 8 nM in the assay on A2780; 7 nM in the assay with KB; 57 nM in the assay with A549.
For the molecule `CC[C@@]1(O)C(=O)OCc2c1cc1n(c2=O)Cc2cc3ccccc3nc2-1` [CAMPTOTHECIN], the IC50 is 7 nM in the assay on HCT-8; 9 nM with KB VCR R; 7 nM in the assay with Bel-7402; 7 nM in the assay on A2780; 9 nM with KB; 8 nM in the assay on A549.
